Measured values published in ChEMBL document CHEMBL6114940, “Exploring the pharmaceutical potential of ammonium organotrifluoroborate functional group: Comprehensive chemical, metabolic, and plasma stability evaluation” (Eur J Med Chem, 2024).

Assays:
[1] = Stability of compound in 20 mM CH3COONH4 buffer at pH 5.8 assessed as solvolysis constant (K) incubated for 72 hrs by LC-MS analysis; type: physicochemical; design: unit not given beside the values; conditions: pH 5.8, 72 h
[2] = Stability of compound in 50 mM Tris-HCL buffer at pH 7.4 assessed as solvolysis constant (K) incubated for 72 hrs by LC-MS analysis; type: physicochemical; conditions: pH 7.4, 72 h
[3] = Stability of compound in 0.05 M HCL assessed as solvolysis constant (K) incubated for 72 hrs by LC-MS analysis; type: physicochemical; design: unit not given beside the values; conditions: buffer
[4] = Stability of compound in 0.5 M NaOH assessed as solvolysis constant (K) incubated for 72 hrs by LC-MS analysis; type: physicochemical; design: unit not given beside the values
[5] = Stability of compound in 0.9 % saline solution assessed as solvolysis constant (K) incubated for 72 hrs by LC-MS analysis; type: physicochemical; conditions: buffer
[6] = Stability of compound in 50 mM Tris-HCL buffer at pH 7.4 assessed as half life incubated for 72 hrs by LC-MS analysis; type: physicochemical
[7] = Stability of compound in 0.5 M NaOH assessed as half life incubated for 72 hrs by LC-MS analysis; type: physicochemical
[8] = Stability of compound in 0.05 M HCL assessed as half life incubated for 72 hrs by LC-MS analysis; type: physicochemical
[9] = Stability of compound in 0.9 % saline solution assessed as half life incubated for 72 hrs by LC-MS analysis; type: physicochemical
[10] = Stability of compound in 20 mM CH3COONH4 buffer at pH 5.8 assessed as half life incubated for 72 hrs by LC-MS analysis; type: physicochemical; conditions: 20 mM ammonium acetate (CH3COONH4) buffer
[11] = Stability in mouse plasma measured after 1 hr by LC-HRMS analysis; type: ADME, cell-free; conditions: read-out: Stability
[12] = Metabolic stability in mouse liver microsomes assessed as drug hydrolysis by measuring 4-(boronomethyl)-4-(2-(2-(2-(((2R,3R,4S,5S,6R)-3,4,5-trihydroxy-6-(hydroxymethyl)tetrahydro-2H-pyran-2-yl)oxy)ethoxy)ethoxy)ethyl)morpholin-4-ium incubated for 1 hrs by LC-MS/MS analysis; type: ADME, Microsome
[13] = Stability of compound in 50 mM Tris-HCL buffer at pH 7.4 assessed as 4-(boronomethyl)-4-(2-(2-(2-(((2R,3R,4S,5S,6R)-3,4,5-trihydroxy-6-(hydroxymethyl)tetrahydro-2H-pyran-2-yl)oxy)ethoxy)ethoxy)ethyl)morpholin4ium formation incubated for 72 hrs by LC-MS analysis; type: physicochemical; conditions: pH 7.4, 72 h
[14] = Stability of compound in 0.05 M HCL assessed as 4-(boronomethyl)-4-(2-(2-(2-(((2R,3R,4S,5S,6R)-3,4,5-trihydroxy-6-(hydroxymethyl)tetrahydro-2H-pyran-2-yl)oxy)ethoxy)ethoxy)ethyl)morpholin-4-ium formation incubated for 72 hrs by LC-MS analysis; type: physicochemical; conditions: buffer
[15] = Stability of compound in 0.5 M NaOH assessed as 4-(boronomethyl)-4-(2-(2-(2-(((2R,3R,4S,5S,6R)-3,4,5-trihydroxy-6-(hydroxymethyl)tetrahydro-2H-pyran-2-yl)oxy)ethoxy)ethoxy)ethyl)morpholin-4-ium formation incubated for 72 hrs by LC-MS analysis; type: physicochemical
[16] = Stability of compound in 0.9 % saline solution assessed as 4-(boronomethyl)-4-(2-(2-(2-(((2R,3R,4S,5S,6R)-3,4,5-trihydroxy-6-(hydroxymethyl)tetrahydro-2H-pyran-2-yl)oxy)ethoxy)ethoxy)ethyl)morpholin-4-ium formation incubated for 72 hrs by LC-MS analysis; type: physicochemical; conditions: buffer
[17] = Stability of compound in 20 mM CH3COONH4 buffer at pH 5.8 assessed as 4-(boronomethyl)-4-(2-(2-(2-(((2R,3R,4S,5S,6R)-3,4,5-trihydroxy-6-(hydroxymethyl)tetrahydro-2H-pyran-2-yl)oxy)ethoxy)ethoxy)ethyl)morpholin-4-ium formation incubated for 72 hrs by LC-MS analysis; type: physicochemical; conditions: pH 5.8, 72 h
[18] = Stability of compound in 0.5 M NaOH assessed as 4-methyl-4-(2-(2-(2-(((2R,3R,4S,5S,6R)-3,4,5-trihydroxy-6-(hydroxymethyl)tetrahydro-2H-pyran-2-yl)oxy)ethoxy)ethoxy)ethyl)morpholin-4-ium formation incubated for 72 hrs by LC-MS analysis; type: physicochemical
[19] = Stability of compound in 0.3 % H2O2 assessed as (2R,3S,4S,5R,6R)-2-(hydroxymethyl)-6-(2-(2-(2-morpholinoethoxy)ethoxy)ethoxy)tetrahydro-2H-pyran-3,4,5-triol formation incubated for 1 hrs by LC-MS analysis; type: physicochemical
[20] = Metabolic stability in mouse liver microsomes assessed as drug hydrolysis 1-borono-N,N-dimethyl-N-((1-(2-(2-(2-(((2R,3R,4S,5S,6R)-3,4,5-trihydroxy-6-(hydroxymethyl)tetrahydro-2H-pyran-2-yl)oxy)ethoxy)ethoxy)ethyl)-1H-1,2,3-triazol-4-yl)methyl)methanaminium formation incubated for 1 hrs by LC-MS/MS analysis; type: ADME, Microsome
[21] = Stability of compound in 50 mM Tris-HCL buffer at pH 7.4 assessed as 1-borono-N,N-dimethyl-N-((1-(2-(2-(2-(((2R,3R,4S,5S,6R)-3,4,5-trihydroxy-6-(hydroxymethyl)tetrahydro-2H-pyran-2-yl)oxy)ethoxy)ethoxy)ethyl)-1H-1,2,3-triazol-4-yl)methyl)methanaminium formation incubated for 72 hrs by LC-MS analysis; type: physicochemical; conditions: pH 7.4, 72 h
[22] = Stability of compound in 0.05 M HCL assessed as 1-borono-N,N-dimethyl-N-((1-(2-(2-(2-(((2R,3R,4S,5S,6R)-3,4,5-trihydroxy-6-(hydroxymethyl)tetrahydro-2H-pyran-2-yl)oxy)ethoxy)ethoxy)ethyl)-1H-1,2,3-triazol-4-yl)methyl)methanaminium formation incubated for 72 hrs by LC-MS analysis; type: physicochemical; conditions: buffer
[23] = Stability of compound in 0.5 M NaOH assessed as 1-borono-N,N-dimethyl-N-((1-(2-(2-(2-(((2R,3R,4S,5S,6R)-3,4,5-trihydroxy-6-(hydroxymethyl)tetrahydro-2H-pyran-2-yl)oxy)ethoxy)ethoxy)ethyl)-1H-1,2,3-triazol-4-yl)methyl)methanaminium formation incubated for 72 hrs by LC-MS analysis; type: physicochemical
[24] = Stability of compound in 0.9 % saline solution assessed as 1-borono-N,N-dimethyl-N-((1-(2-(2-(2-(((2R,3R,4S,5S,6R)-3,4,5-trihydroxy-6-(hydroxymethyl)tetrahydro-2H-pyran-2-yl)oxy)ethoxy)ethoxy)ethyl)-1H-1,2,3-triazol-4-yl)methyl)methanaminium formation incubated for 72 hrs by LC-MS analysis; type: physicochemical; conditions: buffer
[25] = Stability of compound in 20 mM CH3COONH4 buffer at pH 5.8 assessed as 1-borono-N,N-dimethyl-N-((1-(2-(2-(2-(((2R,3R,4S,5S,6R)-3,4,5-trihydroxy-6-(hydroxymethyl)tetrahydro-2H-pyran-2-yl)oxy)ethoxy)ethoxy)ethyl)-1H-1,2,3-triazol-4-yl)methyl)methanaminium formation incubated for 72 hrs by LC-MS analysis; type: physicochemical; conditions: pH 5.8, 72 h
[26] = Stability of compound in 0.5 M NaOH assessed as N,N,N-trimethyl-1-(1-(2-(2-(2-(((2R,3R,4S,5S,6R)-3,4,5-trihydroxy-6-(hydroxymethyl)tetrahydro-2H-pyran-2-yl)oxy)ethoxy)ethoxy)ethyl)-1H-1,2,3-triazol-4-yl)methanaminium formation incubated for 72 hrs by LC-MS analysis; type: physicochemical
[27] = Stability of compound in 0.3 % H2O2 assessed as (2R,3R,4S,5S,6R)-2-(2-(2-(2-(4-((dimethylamino)methyl)-1H-1,2,3-triazol-1-yl)ethoxy)ethoxy)ethoxy)-6-(hydroxymethyl)tetrahydro-2H-pyran-3,4,5-triol formation incubated for 1 hrs by LC-MS analysis; type: physicochemical
[28] = Metabolic stability in mouse liver microsomes assessed as drug hydrolysis by measuring 1-(boronomethyl)-1-(2-(2-(2-(((2R,3R,4S,5S,6R)-3,4,5-trihydroxy-6-(hydroxymethyl)tetrahydro-2H-pyran-2-yl)oxy)ethoxy)ethoxy)ethyl)piperidin-1-ium formation incubated for 1 hrs by LC-MS/MS analysis; type: ADME, Microsome
[29] = Stability of compound in 50 mM Tris-HCL buffer at pH 7.4 assessed as 1-(boronomethyl)-1-(2-(2-(2-(((2R,3R,4S,5S,6R)-3,4,5-trihydroxy-6-(hydroxymethyl)tetrahydro-2H-pyran-2-yl)oxy)ethoxy)ethoxy)ethyl)piperidin1ium formation incubated for 72 hrs by LC-MS analysis; type: physicochemical; conditions: pH 7.4, 72 h
[30] = Stability of compound in 0.05 M HCL assessed as 1-(boronomethyl)-1-(2-(2-(2-(((2R,3R,4S,5S,6R)-3,4,5-trihydroxy-6-(hydroxymethyl)tetrahydro-2H-pyran-2-yl)oxy)ethoxy)ethoxy)ethyl)piperidin-1-ium formation incubated for 72 hrs by LC-MS analysis; type: physicochemical; conditions: buffer
[31] = Stability of compound in 0.5 M NaOH assessed as 1-(boronomethyl)-1-(2-(2-(2-(((2R,3R,4S,5S,6R)-3,4,5-trihydroxy-6-(hydroxymethyl)tetrahydro-2H-pyran-2-yl)oxy)ethoxy)ethoxy)ethyl)piperidin-1-ium formation incubated for 72 hrs by LC-MS analysis; type: physicochemical
[32] = Stability of compound in 0.9 % saline solution assessed as 1-(boronomethyl)-1-(2-(2-(2-(((2R,3R,4S,5S,6R)-3,4,5-trihydroxy-6-(hydroxymethyl)tetrahydro-2H-pyran-2-yl)oxy)ethoxy)ethoxy)ethyl)piperidin-1-ium formation incubated for 72 hrs by LC-MS analysis; type: physicochemical; conditions: buffer
[33] = Stability of compound in 20 mM CH3COONH4 buffer at pH 5.8 assessed as 1-(boronomethyl)-1-(2-(2-(2-(((2R,3R,4S,5S,6R)-3,4,5-trihydroxy-6-(hydroxymethyl)tetrahydro-2H-pyran-2-yl)oxy)ethoxy)ethoxy)ethyl)piperidin-1-ium formation incubated for 72 hrs by LC-MS analysis; type: physicochemical; conditions: pH 5.8, 72 h
[34] = Stability of compound in 0.5 M NaOH assessed as 1-methyl-1-(2-(2-(2-(((2R,3R,4S,5S,6R)-3,4,5-trihydroxy-6-(hydroxymethyl)tetrahydro-2H-pyran-2-yl)oxy)ethoxy)ethoxy)ethyl)piperidin-1-ium formation incubated for 72 hrs by LC-MS analysis; type: physicochemical
[35] = Stability of compound in 0.3 % H2O2 assessed as (2R,3S,4S,5R,6R)-2-(hydroxymethyl)-6-(2-(2-(2-(piperidin-1-yl)ethoxy)ethoxy)ethoxy)tetrahydro-2H-pyran-3,4,5-triol formation incubated for 1 hrs by LC-MS analysis; type: physicochemical

| Compound | K [1] | K [2] | K [3] | K [4] | K [5] | half-life [6] | half-life [7] | half-life [8] | half-life [9] | half-life [10] | remaining at 1 h [11] | further results |
| --- | --- | --- | --- | --- | --- | --- | --- | --- | --- | --- | --- | --- |
| OC[C@H]1O[C@@H](OCCOCCOCC[N+]2(C[B-](F)(F)F)CCOCC2)[C@H](O)[C@@H](O)[C@@H]1O | 0.021 | 0.068 | 2.302 | 0.061 | 0.136 | 10.1 h | 11.3 h | 0.301 h | 5.11 h | 32.7 h | 2.73% | Drug metabolism [12]: metabolite_detected; Stability [13]: Stable; Stability [14]: Stable; Stability [15]: Stable; Stability [16]: Stable; Stability [17]: Stable; Stability [18]: Stable; Stability [19]: Stable |
| C[N+](C)(Cc1cn(CCOCCOCCO[C@@H]2O[C@H](CO)[C@@H](O)[C@H](O)[C@H]2O)nn1)C[B-](F)(F)F | 0.003 | 0.005 | 0.489 | 0.019 | 0.018 | ≥ 58 h | 36 h | 1.42 h | 38.4 h | ≥ 15.7 h | 1.2% | Drug metabolism [20]: metabolite_detected; Stability [21]: Stable; Stability [22]: Stable; Stability [23]: Stable; Stability [24]: Stable; Stability [25]: Stable; Stability [26]: Stable; Stability [27]: Stable |
| OC[C@H]1O[C@@H](OCCOCCOCC[N+]2(C[B-](F)(F)F)CCCCC2)[C@H](O)[C@@H](O)[C@@H]1O | 0.078 | 0.146 | 6.439 | 0.14 | 0.383 | 4.76 h | 4.95 h | 0.108 h | 1.81 h | 8.82 h | 14.1% | Drug metabolism [28]: metabolite_detected; Stability [29]: Stable; Stability [30]: Stable; Stability [31]: Stable; Stability [32]: Stable; Stability [33]: Stable; Stability [34]: Stable; Stability [35]: Stable |
